The record followed here is patent US7595401B2, “Therapeutic compounds and their use in cancer” (Myriad Pharmaceuticals, Inc., priority 2006, dated 2009).

The first assay relates to purified human Hsp90. Description: Binding Assay: fluorescence polarization with BODIPY-labeled geldanamycin. As to conditions: 5 μM compound, BODIPY-GM 10 nM, Hsp90 30 nM. The gist of the method:
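Compounds in 2% DMSO final compete with 10 nM BODIPY-GM for 30 nM purified human Hsp90, incubated overnight at room temperature in pH 7.3 HEPES buffer containing Na2MoO4 and DTT. Polarization (mP, ex/em 485/530) normalized to DMSO gives percent inhibition; autofluorescence-confounded data excluded.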
Regarding `Nc1ncn(CC(c2ccccc2)C2CCCCC2)c2nc(Sc3cc4c(cc3Br)OCO4)nc1-2` (centres unmarked) [Example 227, 8-[(6-Bromo-1,3-benzodioxol-5-yl)thio]-3-(2-cyclohexyl-2-phenylethyl)-3H-purin-6-amine], the “% Inhibition at 5 μM Compound Concentration” value (shortened to “% Inhibition”) came out at 0%.
Still for that read-out and setting: as for `Nc1ncn(CCc2ccccc2)c2nc(Sc3cc(OC(F)(F)F)ccc3Cl)nc1-2` [Example 229, 8-{[2-Chloro-5-(trifluoromethoxy)phenyl]thio}-3-(2-phenylethyl)-3H-purin-6-amine], the figure is 24%.
For the compound `Nc1ncn(CCc2ccccc2Cl)c2nc(Sc3cc4c(cc3Br)OCCO4)nc1-2` [Example 234, 8-[(7-Bromo-2,3-dihydro-1,4-benzodioxin-6-yl)thio]-3-[2-(2-chlorophenyl)ethyl]-3H-purin-6-amine], the “% Inhibition” value came to 0%.
Take `COc1ccc(OC)c(Sc2nc3c(N)ncn(C4Cc5ccccc5C4O)c-3n2)c1` (centres unmarked) [Example 236, 2-{6-Amino-8-[(2,5-dimethoxyphenyl)thio]-3H-purin-3-yl}indan-1-ol]: the “% Inhibition” value is on record as 0%.
Still for that read-out and setting: the figure for `COc1ccc(Sc2nc3c(N)ncn(CCc4ccccc4)c-3n2)cc1Cl` [Example 241, 8-[(3-Chloro-4-methoxyphenyl)thio]-3-(2-phenylethyl)-3H-purin-6-amine] is 0%; for `COc1ccc(OC)c(Sc2nc3c(N)ncnc3n2CCC2(F)C(F)(F)C(F)(F)C(F)(F)C(F)(F)C2(F)F)c1` [Example 245, 8-[(2,5-Dimethoxyphenyl)thio]-9-[2-(undecafluorocyclohexyl)ethyl]-9H-purin-6-amine] it is 1%.
As for `Nc1ncn(Cc2ccccc2)c2nc(Sc3cc4c(cc3Br)OCO4)nc1-2` [Example 265, 3-Benzyl-8-[(6-bromo-1,3-benzodioxol-5-yl)thio]-3H-purin-6-amine], the “% Inhibition” value is reported as 20%.
For `Nc1ncn(CCc2ccccc2)c2nc(Sc3ccc(NC=O)c(O)c3)nc1-2` [Example 268, N-(4-{[6-Amino-3-(2-phenylethyl)-3H-purin-8-yl]thio}-2-hydroxyphenyl)formamide], the “% Inhibition” value stood at 7.0%.

The assay is the same for the next values; noted with them: BODIPY-GM 10 nM, Hsp90 30 nM.
`Nc1ncnc2c1nc(Sc1cc3c(cc1Br)OCO3)n2CC1(c2ccc(Cl)cc2)CC1` [Example 221, 8-(6-Bromo-benzo[1,3]dioxol-5-ylsulfanyl)-9-[1-(4-chloro-phenyl)-cyclopropylmethyl]-9H-purin-6-ylamine]: the IC50 is above 9 µM.
Still for that read-out and setting: as for `COc1ccc(OC)c(Sc2nc3c(N)ncnc3n2CCc2cccc([N+](=O)[O-])c2)c1` [Example 223, 8-(2,5-Dimethoxy-phenylsulfanyl)-9-[2-(3-nitro-phenyl)-ethyl]-9H-purin-6-ylamine], the figure is 0.5 µM; as for `O=c1[nH]cnc2c1nc(Sc1ccc3c(c1)OCO3)n2CCc1ccccc1` [Example 224, 8-(Benzo[1,3]dioxol-5-ylsulfanyl)-9-phenethyl-1,9-dihydro-purin-6-one], above 5 µM; as for `Nc1ncnc2c1nc(Sc1cc3c(cc1Br)OCO3)n2CC(c1ccccc1)C1CCCCC1` (centres unmarked) [Example 226, 8-[(6-Bromo-1,3-benzodioxol-5-yl)thio]-9-(2-cyclohexyl-2-phenylethyl)-9H-purin-6-amine], above 25 µM.
The compound `Nc1ncnc2c1nc(Sc1cc(OC(F)(F)F)ccc1Cl)n2CCc1ccccc1` [Example 228, 8-{[2-Chloro-5-(trifluoromethoxy)phenyl]thio}-9-(2-phenylethyl)-9H-purin-6-amine] gave an IC50 above 8 µM.
`COc1ccc(OC)c(Sc2nc3c(N)nc(F)nc3n2CCc2ccccc2)c1` [Example 230, 8-[(2,5-Dimethoxyphenyl)thio]-2-fluoro-9-(2-phenylethyl)-9H-purin-6-amine] displayed an IC50 of 0.21 µM.
The compound `COc1ccc(OC)c(Sc2nc3c(N)ncnc3n2CCc2ccccc2O)c1` [Example 231, 2-(2-{6-Amino-8-[(2,5-dimethoxyphenyl)thio]-9H-purin-9-yl}ethyl)phenol] registered an IC50 above 25 µM.
In turn, `Nc1ncnc2c1nc(Sc1cc3c(cc1Br)OCCO3)n2CCc1ccccc1Cl` [Example 233, 8-[(7-Bromo-2,3-dihydro-1,4-benzodioxin-6-yl)thio]-9-[2-(2-chlorophenyl)ethyl]-9H-purin-6-amine] came in with an IC50 of 0.5 µM.
On the same count and under the same terms, as for `COc1ccc(OC)c(Sc2nc3c(N)ncnc3n2C2Cc3ccccc3C2O)c1` (centres unmarked) [Example 235, 2-{6-Amino-8-[(2,5-dimethoxyphenyl)thio]-9H-purin-9-yl}indan-1-ol], the figure is above 8 µM; as for `COc1cc(Sc2nc3c(N)nc(F)nc3n2CCc2ccccc2Cl)cc(OC)c1OC` [Example 237, 9-[2-(2-Chlorophenyl)ethyl]-2-fluoro-8-[(3,4,5-trimethoxyphenyl)thio]-9H-purin-6-amine], above 25 µM.
`COc1cc(Sc2nc3c(N)nc(F)nc3n2CCc2c(Cl)cccc2Cl)c(Cl)c(OC)c1OC` [Example 239, 8-[(2-Chloro-3,4,5-trimethoxyphenyl)thio]-9-[2-(2,6-dichlorophenyl)ethyl]-2-fluoro-9H-purin-6-amine] had an IC50 above 25 µM.
On to `Nc1ncnc2c1nc(Sc1cc3c(cc1Br)OCO3)n2CCC1(F)C(F)(F)C(F)(F)C(F)(F)C(F)(F)C1(F)F` [Example 243, 8-[(6-Bromo-1,3-benzodioxol-5-yl)thio]-9-[2-(undecafluorocyclohexyl)ethyl]-9H-purin-6-amine], for which the IC50 is above 1 µM.
The compound `COc1ccc(CCn2c(Sc3cc(OC)ccc3OC)nc3c(N)ncnc32)cc1` [Example 247, 8-[(2,5-Dimethoxyphenyl)thio]-9-[2-(4-methoxyphenyl)ethyl]-9H-purin-6-amine] displayed an IC50 of 3 µM.
`COc1ccc(OC)c(Sc2nc3c(N)ncnc3n2CCc2ccc(Cl)cc2)c1` [Example 248, 9-[2-(4-Chlorophenyl)ethyl]-8-[(2,5-dimethoxyphenyl)thio]-9H-purin-6-amine]: the IC50 was above 5 µM.
Still for that read-out and setting: the figure for `Nc1ncnc2c1nc(Sc1cc3c(cc1Br)OCO3)n2CCc1ccc(F)cc1` [Example 249, 8-[(6-Bromo-1,3-benzodioxol-5-yl)thio]-9-[2-(4-fluorophenyl)ethyl]-9H-purin-6-amine] is 0.1 µM; for `COc1ccc(CCn2c(Sc3cc4c(cc3Br)OCO4)nc3c(N)ncnc32)cc1` [Example 250, 8-[(6-Bromo-1,3-benzodioxol-5-yl)thio]-9-[2-(4-methoxyphenyl)ethyl]-9H-purin-6-amine] it is 0.9 µM; for `COc1ccc(OC)c(Sc2nc3c(N)ncnc3n2CCc2c(Cl)cccc2Cl)c1` [Example 251, 9-[2-(2,6-Dichlorophenyl)ethyl]-8-[(2,5-dimethoxyphenyl)thio]-9H-purin-6-amine] it is 0.075 µM.
`Nc1ncnc2c1nc(Sc1cccc(OC(F)F)c1)n2CCc1ccccc1` [Example 252, 8-{[3-(Difluoromethoxy)phenyl]thio}-9-(2-phenylethyl)-9H-purin-6-amine] registered a 50% inhibitory concentration (IC50) above 25 µM.
Same read-out and setting: the figure for `Nc1ncnc2c1nc(Sc1cccc(OC(F)F)c1)n2CCc1c(Cl)cccc1Cl` [Example 253, 9-[2-(2,6-Dichlorophenyl)ethyl]-8-{[3-(difluoromethoxy)phenyl]thio}-9H-purin-6-amine] is above 8 µM; for `Nc1ncnc2c1nc(Sc1cccc(OC(F)F)c1)n2CCc1c(F)cccc1Cl` [Example 254, 9-[2-(2-Chloro-6-fluorophenyl)ethyl]-8-{[3-(difluoromethoxy)phenyl]thio}-9H-purin-6-amine] it is above 8 µM.
Same read-out and setting: as for `COc1cc(Sc2nc3c(N)ncnc3n2CCc2c(Cl)cccc2Cl)c(OC)cc1Cl` [Example 255, 8-[(4-Chloro-2,5-dimethoxyphenyl)thio]-9-[2-(2,6-dichlorophenyl)ethyl]-9H-purin-6-amine], the figure is 0.25 µM; as for `COc1cc(Sc2nc3c(N)ncnc3n2CCc2c(F)cccc2Cl)c(OC)cc1Cl` [Example 256, 8-[(4-Chloro-2,5-dimethoxyphenyl)thio]-9-[2-(2-chloro-6-fluorophenyl)ethyl]-9H-purin-6-amine], 0.47 µM.
As to `COc1cc(Sc2nc3c(N)ncnc3n2CCc2ccccc2)c(OC)cc1Cl` [Example 257, 8-[(4-Chloro-2,5-dimethoxyphenyl)thio]-9-(2-phenylethyl)-9H-purin-6-amine], the IC50 was above 25 µM.
On the same count and under the same terms, the figure for `Nc1ncnc2c1nc(Sc1cccc(OC(F)F)c1)n2CCc1ccccc1Cl` [Example 258, 9-[2-(2-Chlorophenyl)ethyl]-8-{[3-(difluoromethoxy)phenyl]thio}-9H-purin-6-amine] is above 25 µM; for `Nc1ncnc2c1nc(Sc1cc(Cl)c(Cl)cc1Cl)n2CCc1ccccc1` [Example 259, 9-(2-Phenylethyl)-8-[(2,4,5-trichlorophenyl)thio]-9H-purin-6-amine] it is 12 µM.
In turn, `COc1cc(Sc2nc3c(N)ncnc3n2CCc2ccccc2Cl)c(OC)cc1Cl` [Example 260, 8-[(4-Chloro-2,5-dimethoxyphenyl)thio]-9-[2-(2-chlorophenyl)ethyl]-9H-purin-6-amine] came in with an IC50 of 1.5 µM.
Same read-out and setting: as for `COc1cc(I)c(Sc2nc3c(N)ncnc3n2CCc2ccccc2Cl)cc1OC` [Example 261, 9-[2-(2-Chlorophenyl)ethyl]-8-[(2-iodo-4,5-dimethoxyphenyl)thio]-9H-purin-6-amine], the figure is above 25 µM.
In turn, `Nc1ncnc2c1nc(Sc1cc(Cl)c(Cl)cc1Cl)n2CCc1ccccc1Cl` [Example 262, 9-[2-(2-Chlorophenyl)ethyl]-8-[(2,4,5-trichlorophenyl)thio]-9H-purin-6-amine] showed an IC50 above 25 µM.
`COc1ccc(OC)c(Sc2nc3c(N)ncnc3n2Cc2ccc(F)cc2)c1` [Example 266, 8-[(2,5-Dimethoxyphenyl)thio]-9-(4-fluorobenzyl)-9H-purin-6-amine]: the IC50 was found to be 12 µM.
Same read-out and setting: as for `Nc1ncnc2c1nc(Sc1ccc(NC=O)c(O)c1)n2CCc1ccccc1` [Example 267, N-(4-{[6-Amino-9-(2-phenylethyl)-9H-purin-8-yl]thio}-2-hydroxyphenyl)formamide], the figure is above 25 µM.
